Reference: patent US20240341301A1 (The Regents of the University of Michigan, priority 2023, published 2024)

Key:
[1] = tested on: murine donor hearts; test: Murine donor heart tissue staining and Western blot (oxidative stress, antioxidant proteins, cell death); set-up: species or system mouse
Description: (§1) Male and female WT or Irg1^−/− mice (Jackson laboratories, Bar Harbor, ME) were anesthetized intraperitoneally with 80 mg/kg ketamine and 5 mg/kg xylazine, anticoagulated with heparin (2,000 U/kg iv), and the heart was rapidly exposed through a sternal incision. The aorta was cannulated and retrograde perfused in-situ with HTK solution±HDAC inhibitors. After cannulation, the heart dissected free, the left atrium was opened. For 4-OI (Cayman Chemical, 25374) experiments, donor mice were treated 4-OI (dissolved in 40% β-Cyclodextrin, 50 mg/kg intraperitoneally) or vehicle control (40% β-Cyclodextrin intraperitoneally) 2 hours prior to donor heart procurement. After dissection, the heart was stored at 4° C. with HTK or HTK with VPA for a pre-designated duration. The hearts were then mounted on a Radnoti mouse Langendorff apparatus (ADInstruments inc., Colorado Springs, CO) in constant-pressure mode (˜70 mmHg) with a modified Krebs-Henseleit buffer (KHB; in mM: 118 NaCl, 4.7 KCl, 1.25 CaCl2), 1.66 MgSO4, 24.88 NaHCO3, 1.18 KH2PO4, 5.55 glucose, and 2.0 Na-pyruvate). A balloon was placed in the LV through the left atrium and left ventricular diastolic pressure was set to ˜8 mmHg at initiation. The heart was perfused with modified Krebs-Henseleit buffer for 30 min to stabilize and then hemodynamics measurements were recorded. Myocardial temperature was maintained at 37° C. LabChart software (ADInstruments inc., Colorado Springs, CO) was used to record ventricular function, perfusion pressures, cardiac chamber temperature and myocardial temperature. After perfusing the heart for 60 minutes, the heart was removed from the ex-vivo perfusion apparatus for specimen collection. Tissue was immediately placed in liquid N2 or treated with 4% formalin.

[2] = tested on: IRG1; test: IRG1 enhancer ChIP-qPCR and mRNA expression in human donor heart tissue
Description: (§2) Pig hearts underwent ex-vivo perfusion after preservation for 4 or 10 hours. Approval for human heart procurement was obtained from the University of Michigan Institutional Review Board (HUM00131275). Human donor hearts from deceased brain death donors were procured as per standard clinical protocols from the Gift of Life Michigan (GOLM) organ procurement facility. Myocardial biopsies (˜5 mm^3) of LV were biopsied immediately after cardioplegic arrest (0 h) and after 8 hours (8 h) of cold storage in a cooler containing ice. […] Causes of death were stroke (n=4), trauma (n=2), drug overdose (n=1), and cardiac arrest (n=1). Heart tissue were either fixed in formalin or snap frozen in liquid N2 for later analysis.

[3] = tested on: Irg1; test: Irg1 mRNA transcript expression in preserved murine donor hearts; set-up: species or system mouse; details: 16 hours preservation without reperfusion and during ex vivo perfusion
Description: as §1

[4] = tested on: pig hearts; test: Porcine ex-vivo heart perfusion after cold preservation
Description: Heart procurement for both human and pigs were performed as follows. A sternotomy is performed under general anesthesia. The pericardium is then opened to create a pericardial cradle for the heart. Heparin (300U/kg) administered through the right atrium or in a peripheral vein. After waiting 3 minute for adequate anticoagulation from heparin, a 9 Fr antegrade plegia infusion catheter is placed in the ascending aorta. Approximately 1 liter of autologous donor arterial blood is then collected into a collection bottle containing heparin. […] Subsequently, the ascending aorta is cross-clamped distal to the cardioplegia catheter and 1 liter of cold (4° C.) HTK solution is infused into the coronaries at a perfusion pressure of ˜80 mmHg to induce mechanical arrest. After excising the heart completely, it is transported to the back-table for infusion of 2 liters of HTK±VPA solution. After completion, the heart is stored in a solution identical to the perfusate at 4° C. on ice.
as §2
For ex-vivo pig heart perfusion (FIG. 15), the ascending aorta is connected to the arterial perfusion cannula and the left atrium is closed by suturing shut the pulmonary veins. A pressure monitoring catheter and left atrial infusion catheter were then placed into the left atrial cavity and secured. The Miller conductance catheter was introduced into the left ventricular cavity for measurement of ventricular performance parameters. The Radnoti constant perfusion pressure apparatus (ADInstruments Inc., Colorado Springs, CO) was utilized for ex-vivo large animal heart perfusion. Approximately 1 liter of previously collected autologous blood was added to ˜3.5 liters of Krebs buffer and this was initially infused at 24° C. with gradual warming to 37° C. After air was removed from the perfusion system, the ascending aorta and coronaries were retrograde perfused through the arterial cannula at physiological pressure ˜80 mmHg, leading to cardiac reanimation. The perfusion pressure was kept constant at ˜80 mmHg so LV contraction would need to overcome this afterload for cardiac output. Shockable arrhythmias such as ventricular tachycardia, ventricular fibrillation, supraventricular tachycardia were electrically cardioverted to sinus rhythm by delivery of 10 or 20 joules of energy. Cardiac performance was assessed in “resting” and “working” modes (60, 61). The left atrial pressure in resting mode was typically 0-1 mmHg. To assess cardiac hemodynamics in “working mode”, perfusate was infused into the left atrium at 4-10 mmHg at the 4-hour time point for LV loading and cardiac output assessment. Because cardiac performance was highly impaired as expected at the 10-hour time point, the left atrium was loaded to a pressure of up to 15 mmHg to assess cardiac output. At 1 hour intervals, both arterial perfusate and coronary sinus blood were collected for monitoring and analysis. Oxygen pressure was kept at about pO2 150-200 mmHg while pCO2 was kept at about 35-40 mmHg. Arterial pH was maintained at 7.35-7.40 by buffering with 5% CO2 during gas exchange. The heart was perfused ex vivo for 3 hours and then arrested with 4° C. HTK solution for specimen collection in formalin or snap frozen with liquid N2. The heart was weighed at the time of procurement and at the end of perfusion. […]

[5] = 16 hours preservation, ex-vivo perfusion
[6] = ex vivo perfused WT murine hearts
[7] = ex vivo perfused hearts compared to HTK alone

CCCC(CCC)C(=O)O [VPA, 2-Propyl-pentanoic acid]
overall oxidative stress (DHE staining) [1, 5]: decreased
oxidative DNA damage (8OHdG staining) [1, 5]: decreased
NRF2 nuclear translation effect ([1]; Irg1−/− hearts): greatly reduced
benefit on TUNEL staining in α-actinin+ cardiomyocytes ([1]; Irg1−/− hearts): lost
antioxidant protein expression ([1]; Irg1−/− murine hearts): no increase
NRF2 nuclear translation from the cytoplasm ([1]; WT hearts): induced
protein abundance of HO1 [1, 6]: upregulated
protein abundance of SOD1 [1, 6]: upregulated
protein abundance of SOD2 [1, 6]: not
protein abundance of total NRF2 [1, 6]: upregulated
ratio of reduced (GSH) versus oxidized glutathione (GSSG) ([1]; preserved and transplanted murine hearts): increased
TUNEL staining in α-actinin+ cardiomyocytes ([1]; wild type hearts): reduced
IRG1 enhancer activity (H3K27ac ChIP-qPCR) ([2]; 8-hours of preservation compared to HTK alone): increased
IRG1 mRNA transcript expression ([2]; human hearts after preservation): increased
Irg1 transcript expression [3]: increased
TnI in arterial perfusate [4]: reduced
cleaved caspase 3 expression [4]: decreased
heart weight [4]: no difference
oxygen consumption [4]: higher
total Nrf2 protein in cardiac tissue [4]: increased
NRF2 nuclear translocation ([4]; 4 and 10 hours of preservation): induced
donor heart contractility in working mode ([4]; 4 h and 10 h preservation): improved
donor heart relaxation in working mode ([4]; 4 h and 10 h preservation): improved
oxidative DNA damage via 8-OHdG staining ([4]; 10 h preservation): greatly reduced
improvement of cardiac output (CO) compared with HTK alone ([4]; after 4 h preservation): about 25%
aortic pulse pressure magnitude (systolic minus diastolic pressure) ([4]; after 10 h of preservation): greater
improvement of cardiac output (CO) compared with HTK alone ([4]; after 10 h of preservation): 100%
systolic pressure in the left ventricular cavity ([4]; after 10 h of preservation): higher
perfusate concentration of IL-1β ([4]; after 10 hours of preservation): reduced
perfusate concentration of IL-2 ([4]; after 10 hours of preservation): reduced
perfusate concentration of IL-6 ([4]; after 10 hours of preservation): reduced
perfusate concentration of TNF-α ([4]; after 10 hours of preservation): reduced
expression of pro-survival protein BCL2 ([4]; after 10 h preservation): increased
expression of IRG1 transcript [4, 7]: increased
mRNA abundance of IL1B [4, 7]: decreased
mRNA abundance of IL6 [4, 7]: decreased
mRNA abundance of TNFA [4, 7]: decreased
oxygen consumption compared to HTK alone ([4]; pig hearts preserved for 10 h): greater
